One molecule from PMC9866218, “Characterization and Chemical Synthesis of Cm39 (α-KTx 4.8): A Scorpion Toxin That Inhibits Voltage-Gated K^+ Channel KV1.2 and Small- and Intermediate-Conductance Ca^2+-Activated K^+ Channels KCa2.2 and KCa3.1” (Toxins, 2023) can be followed below.

In one assay the test system is mKCa1.1. The assay is classed as cell-based, mice. The following applies: HEK 293 cells. From the text:
We, therefore, aimed at testing the pharmacological activity of sCm39 on a battery of various potassium and sodium ion channels. Among the tested channels were six members of human voltage-gated K^+ (hKV) channels from Shaker family, hKV1.1-hKV1.6 (Figure 3A–F) and three members of Ca^2+-activated potassium channel; hKCa2.2 (SK2, Figure 3I), the small-conductance Ca^2+-activated channel; hKCa3.1 (IKCa1, SK4. Figure 3J), the intermediate-conductance Ca^2+-activated channel expressed in T lymphocytes; and mKCa1.1 (BK, Slo1, MaxiK, Figure 3H), the large-conductance voltage- and Ca^2+-activated channel of mice. In addition, we also screened the effect of Cm39 on hKV11.1 (hERG1, Figure 3G), a voltage-gated cardiac K^+ channel, and two human voltage-gated sodium (hNaV) channels, hNaV1.4 (Figure 3K) and hNaV1.5 (Figure 3L), expressed in skeletal and cardiac muscles, respectively. These ion channels were heterologously expressed in the CHO or HEK cell lines except for KV1.3. Human peripheral T lymphocytes. They were stimulated with Phytohemagglutinin A (PHA) to increase the KV1.3 channel expression, and Ca^2+-free intracellular solution was used to avoid KCa3.1 channel activation. Appropriate depolarization protocols were used to record ionic currents in voltage-clamped cells (see Figure 3 insets and Material and Methods for details). Freshly dissolved sCm39 in extracellular solution was applied at 1 µM concentration on the cell using a custom-built micro-perfusion system at ~200 µL/min flow rate. […]
Whole-cell currents were recorded in voltage-clamped cells following standard protocols by using a Multiclamp 700B amplifier connected to a computer with Axon Digidata1440 digitizer and for data acquisition, Clampex 10.7 software was used (Molecular Devices). […]

The next assay deals with T1, hKCa2.2 (Homo sapiens, UniProt Q9H2S1).
T1 construct: expressed in transfected cells; host or cells: CHO cells, transient transfection, co-transfected with a GFP plasmid
T1 sequence (Q9H2S1 whole entry): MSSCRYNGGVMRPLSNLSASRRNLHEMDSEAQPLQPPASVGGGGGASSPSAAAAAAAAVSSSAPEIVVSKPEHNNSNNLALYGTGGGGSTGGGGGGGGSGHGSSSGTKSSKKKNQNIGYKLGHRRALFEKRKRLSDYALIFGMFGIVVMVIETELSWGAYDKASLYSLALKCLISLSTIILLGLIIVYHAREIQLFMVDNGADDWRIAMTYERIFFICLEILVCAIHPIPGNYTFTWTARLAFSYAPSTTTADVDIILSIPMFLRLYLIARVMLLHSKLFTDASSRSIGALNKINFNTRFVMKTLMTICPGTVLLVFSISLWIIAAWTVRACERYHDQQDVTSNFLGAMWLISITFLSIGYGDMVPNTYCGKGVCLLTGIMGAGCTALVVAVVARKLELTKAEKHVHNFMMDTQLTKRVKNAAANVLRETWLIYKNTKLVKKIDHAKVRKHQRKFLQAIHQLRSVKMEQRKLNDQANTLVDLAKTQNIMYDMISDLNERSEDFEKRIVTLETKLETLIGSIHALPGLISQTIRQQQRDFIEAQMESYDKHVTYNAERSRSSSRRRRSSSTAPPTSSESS
The assay is described as follows: Whole-cell patch-clamp, block of KCa2.2 current. In kind it is cell-based. An excerpt: We, therefore, aimed at testing the pharmacological activity of sCm39 on a battery of various potassium and sodium ion channels. Among the tested channels were six members of human voltage-gated K^+ (hKV) channels from Shaker family, hKV1.1-hKV1.6 (Figure 3A–F) and three members of Ca^2+-activated potassium channel; hKCa2.2 (SK2, Figure 3I), the small-conductance Ca^2+-activated channel; hKCa3.1 (IKCa1, SK4. Figure 3J), the intermediate-conductance Ca^2+-activated channel expressed in T lymphocytes; and mKCa1.1 (BK, Slo1, MaxiK, Figure 3H), the large-conductance voltage- and Ca^2+-activated channel of mice. In addition, we also screened the effect of Cm39 on hKV11.1 (hERG1, Figure 3G), a voltage-gated cardiac K^+ channel, and two human voltage-gated sodium (hNaV) channels, hNaV1.4 (Figure 3K) and hNaV1.5 (Figure 3L), expressed in skeletal and cardiac muscles, respectively. These ion channels were heterologously expressed in the CHO or HEK cell lines except for KV1.3. Human peripheral T lymphocytes. They were stimulated with Phytohemagglutinin A (PHA) to increase the KV1.3 channel expression, and Ca^2+-free intracellular solution was used to avoid KCa3.1 channel activation. Appropriate depolarization protocols were used to record ionic currents in voltage-clamped cells (see Figure 3 insets and Material and Methods for details). Freshly dissolved sCm39 in extracellular solution was applied at 1 µM concentration on the cell using a custom-built micro-perfusion system at ~200 µL/min flow rate.
The whole-cell K^+ currents of CHO cells transiently expressing KCa2.2 or KCa3.1 channels were recorded sequentially by applying the 150 ms long voltage ramp to +50 mV from Vh of −120 mV every 10 s in the presence of control solution or upon perfusing the cell with different concentrations of sCm39. Normalized peak currents were calculated and plotted as function of time as shown in Figure 5A for KCa2.2 and in Figure 5C for KCa3.1 in the presence of the toxin at various concentrations and upon wash-out. […] RCF values were determined at equilibrium block in the presence of various concentrations of sCm39 and fitted with the Hill equation (see Materials and Methods for details).
Chinese hamster ovary (CHO) cells (gift from Yosef Yarden, Weizmann Institute of Science, Rehovot, Israel) were maintained by culturing in Dulbecco’s modified Eagle medium (DMEM, Gibco) supplemented with 2 mM L-glutamine, 10% FBS, 100 µg/mL streptomycin and 100 U/mL penicillin-g (Sigma-Aldrich) at a density of 0. 5−1×10^6 cells per mL in a humidified incubator at 37 °C and 5% CO2. Cells were passaged 3 times in a week following a 2–5 min incubation in 0.05% trypsin-EDTA solution at 37 °C. Cultures were used up to passage number 20. PCR-based tests were routinely used to detect mycoplasma infection, only mycoplasma-free cultures were used for experiments.
Those plasmids which lack a fluorescent tag were co-transfected with a plasmid encoding GFP. Transfections were performed at a GFP:channel DNA molar ratio of 1:10 using the Lipofectamine 2000 kit (Invitrogen) according to the manufacturer’s protocol. […] Generally, currents were recorded 24 to 48 h post transfection.
For the measurement of KV1.x, mKCa1.1 and NaV1.x currents the extracellular solution was composed of (in mM) 145 NaCl, 5 KCl, 2.5 CaCl2, 1 MgCl2, 10 HEPES and 5.5 glucose, pH 7.35.
On the technique in general: Patch clamp records ionic current or voltage across a cell membrane.

“Also recorded” adds a separate entry of the source.

As for `CC[C@H](C)[C@@H]1NC(=O)[C@H](C)NC(=O)[C@H](C)NC(=O)[C@H](CCCCN)NC(=O)[C@@H]2CSSC[C@@H](C(=O)N[C@@H](Cc3ccc(O)cc3)C(=O)N[C@@H](Cc3ccc(O)cc3)C(=O)O)NC(=O)[C@H](CCCCN)NC(=O)[C@@H]3CSSC[C@H](NC(=O)[C@H](CCC(=O)O)NC(=O)[C@H](CO)NC(=O)[C@H](CO)NC(=O)[C@H](CO)NC(=O)[C@H](CCCCN)NC(=O)[C@@H](NC(=O)[C@H](CCCCN)NC(=O)[C@H](Cc4c[nH]cn4)NC(=O)[C@H](CC(N)=O)NC(=O)[C@@H](NC(=O)[C@H](Cc4ccccc4)NC(=O)[C@@H](N)[C@@H](C)O)[C@@H](C)CC)CSSC[C@H](NC(=O)[C@H](CCCCN)NC(=O)CNC(=O)[C@H](CO)NC(=O)[C@H](C)NC(=O)[C@H](CCCNC(=N)N)NC(=O)CNC1=O)C(=O)N[C@@H]([C@@H](C)CC)C(=O)N[C@@H](CC(N)=O)C(=O)N[C@@H](CO)C(=O)N[C@@H]([C@@H](C)O)C(=O)N3)C(=O)N[C@@H](CC(C)C)C(=O)N1CCC[C@H]1C(=O)N[C@@H](C)C(=O)N2` [Cm39], the “inhibition (in words)” value with mKCa1.1 (1 μM) is “does not inhibit; also recorded: did not show any effect”. In the assay with mKCa1.1 (1 µM, 3−5 min, n = 3−5), the decrease in current is on record as < 3%. On hKCa2.2 (1 µM, CHO cells, current at +48 mV, n = 3−5 (Figure 3M)), the “reduction of current at equilibrium block” value is 55%. The “toxin association and dissociation kinetics” value was “fast” at hKCa2.2 (CHO cells) and “very fast” at hKCa2.2 (CHO cells, listed as sCm39). The “Hill coefficient (H)” value at hKCa2.2 (concentration-response of KCa2.2 block, CHO cells) is given as 0.7. The “development and almost full recovery from equilibrium block” value on hKCa2.2 (pulses separated by 10 s) is recorded as 1–3 depolarization pulses. On hKCa2.2 (wash-out with toxin-free solution), the “reversibility of KCa2.2 block” value is given as “fully reversible”.
